{
  "source": "patent US20250268900A1",
  "about": "“COMBINATION THERAPY USING A SUBSTITUTED PYRIMIDIN-4(3H)-ONE AND NIVOLUMAB AS WELL AS ITS USE IN THE TREATMENT OF CANCER” (BRISTOL-MYERS SQUIBB COMPANY, priority 2022, published 2025)",
  "key": {"IFNγ": {"system": "IFNγ", "experiment": "IFNγ concentration in PBMC supernatants 5 days post CEFT stimulation, TR-FRET", "format": "cell-based", "settings": "5 days after CEFT stimulation; data not shown", "description": "(§1) A study was performed to evaluate the effect of the SHP2 inhibitor Compound (10b) alone and in combination with αPD-L1 on T cell cytokine production and killing potential in response to antigenic stimulation. PBMCs from four healthy donors were stimulated with a CEFT peptide pool and treated with vehicle, isotype control, αPD-L1, a titration of Compound (10b), or a titration of Compound (10b) with the addition of either isotype control or αPD-L1. After the initial CEFT stimulation, the cultures were rested and cytokines were added to expand the number of responding CD8+ T cells. Cells were then restimulated with the CEFT peptide pool for 24 hours, and the frequency of CD107a+ cells as a percentage of total CD8+ T cells was assessed by flow cytometry. In addition, at 5 days post stimulation, the supernatents were harvested and the concentration of IFNγ was measured by TR-FRET. FIG. 1A-FIG. 1B show results from this study."}, "CT-26 KRAS D12C KI tumor": {"system": "CT-26 KRAS D12C KI tumor", "settings": "CT-26 KRAS D12C KI bearing Balb/c mice, n = 10", "quoted_text": "Animal Receipt and Housing. For the CT-26 CRISPR knock-in KRAS D12C study, protocols and procedures involving the care and use of animals were reviewed and approved by the Charles River Accelerator and Development Lab (CRADL) Institutional Animal Care and Use Committee (IACUC) prior to execution. The animal care and use program has been fully accredited by the Association for Assessment and Accreditation of Laboratory Animal Care International (AAALAC). Balb/c female mice (Envigo; Inotiv Inc.) were ordered, aged six to eight weeks at receipt, and identified by ear notch. Animals were acclimated for a period of eleven days prior to tumor inoculation. For the duration of the acclimation period and throughout the study, mice were group-housed up to five animals per cage in disposable polycarbonate IVC cages (Innovive; San Diego, CA) which consisted of a layer of Alpha-Dri bedding (Sheppard Specialty Papers, Inc., Kalamazoo, MI), a certified enrichment block and diamond-twist, and a certified polycarbonate housing device. Mice were presented with rodent diet pellet and irradiated reverse-osmosis Aquavive® drinking water (Innovive; San Diego, CA), ad libitum. The vivarium temperature was maintained between 20° C. through 26° C. and an environmental humidity between 30% through 70%. The interior room lighting was cycled twelve hours on and twelve hours off.\nTumor Cell Line Culture and Inoculation. […] Cells were screened and confirmed negative for mouse pathogens (IDEXX) and maintained in-vitro at 37° C., 5% CO2 atmosphere in 10% (v/v) fetal bovine serum (FBS, Invitrogen) and 90% (v/v) Roswell Park Memorial Institute (RPMI) 1640 Medium (Gibco) on T150 flasks. For implantation, cells were harvested with 0.25% Trypsin-EDTA (Gibco), washed in DPBS (Gibco), counted and viability determined with trypan blue exclusion using Vi-Cell XR (Beckman Coulter), then brought up in a 1:1 ratio of DPBS:Matrigel to a final concentration of 3×10^6 cells/mL. […]"}, "CD8+ T cells": {"system": "CD8+ T cells", "experiment": "CD8+ activation in PBMCs: CD107a+ cells as a percentage of total CD8+ T cells after CEFT peptide pool stimulation, flow cytometry", "format": "cell-based", "settings": "PBMCs restimulated with CEFT peptide pool 24 hours, titration of Compound (10b) alone or with αPD-L1", "description": "as §1"}},
  "data": [
    {"smiles": "Cc1c(N2CCC3(CC2)CO[C@@H](C)[C@H]3N)nc(C)n(-c2cccc(Cl)c2Cl)c1=O", "note": "(atropisomer, axis not shown; (Ra)) [Compound (10b), 6-((3S,4S)-4-amino-3-methyl-2-oxa-8-azaspiro[4.5]decan-8-yl)-3-(Ra)-(2,3-dichlorophenyl)-2,5-dimethyl-4(3H)-pyrimidinone]", "values": [
      {"measurement": "IFNγ levels", "setting": "IFNγ", "result": "inconsistent across donors"},
      {"measurement": "Median Progression-Free to Tumor Burden Endpoint", "setting": "CT-26 KRAS D12C KI tumor; Formula (10b) 100 mg/kg PO QD×35, ANTIBODY A 10 mg/kg IP Q4D×4, endpoint tumor volume >1,500 mm^3", "result": 19, "unit": "Study Day"},
      {"measurement": "Hazard Ratio Treatment/ANTIBODY A (Group 2)", "setting": "CT-26 KRAS D12C KI tumor; Mantel-Haenszel hazard ratio vs ANTIBODY A alone, progression-free to tumor burden endpoint (tumor volume >1,500 mm^3)", "result": 1.230},
      {"measurement": "Hazard Ratio Treatment/Control (Group 1)", "setting": "CT-26 KRAS D12C KI tumor; Mantel-Haenszel hazard ratio vs Vehicle Control + MOPC-21 Isotype, progression-free to tumor burden endpoint (tumor volume >1,500 mm^3)", "result": 0.261},
      {"measurement": "CD107a+CD8+ T cells (frequency of CD107a+ cells as a percentage of total CD8+ T cells)", "setting": "CD8+ T cells; donor 1", "result": "clear Compound (10b) dose-dependent effect"},
      {"measurement": "CD107a+CD8+ T cells (frequency of CD107a+ cells as a percentage of total CD8+ T cells)", "setting": "CD8+ T cells; donor 2", "result": "dose dependent decrease"},
      {"measurement": "CD107a+CD8+ T cells (frequency of CD107a+ cells as a percentage of total CD8+ T cells)", "setting": "CD8+ T cells; donor 3", "result": "some Compound (10b) effect"},
      {"measurement": "CD107a+CD8+ T cells (frequency of CD107a+ cells as a percentage of total CD8+ T cells)", "setting": "CD8+ T cells; donor 4", "result": "no Compound (10b) effect"}
    ]}
  ]
}
